{
  "source": "paper PMC10394516",
  "about": "“The pharmacokinetic profile of brensocatib and its effect on pharmacodynamic biomarkers including NE, PR3, and CatG in various rodent species” (Frontiers in Pharmacology, 2023)",
  "assay_type_in_all_cases": "in vivo",
  "key": {"NE [1]": {"test_system": "NE", "test": "Bone marrow NE activity after repeated dosing, C57BL/6 mice", "settings": "7 days", "experimental": "(§1) Briefly, animals were weighed and randomized into different treatment groups. In total, three different dosing levels of brensocatib were tested in each species and strain; each QD dosing level was equivalent to 1.5-times the matching daily BID dose. For BID dosing, the second daily dose was administered 8-h post the morning dose. C57BL/6 mice were dosed either BID or QD for 7 consecutive days at 0/0, 0.5/0.75, 2/3, and 20/30 mg/kg/day (BID/QD). BALB/c mice were dosed for 7 consecutive days at 0/0, 0.2/0.3, 2/3, and 20/30 mg/kg/day (BID/QD). SD rats were dosed for 9 consecutive days at 0/0, 0.2/0.3, 2/3, and 20/30 mg/kg/day (BID/QD). Wistar rats were dosed for 7 consecutive days at 0/0, 0.2/0.3, 2/3, and 20/30 mg/kg/day (BID/QD).\n(§2) At the completion of the study, animals were sacrificed 16–24 h post their final dose. The hind limb bones (femurs and tibias) were collected at necropsy for bone marrow analysis of NSP activities by kinetic enzymatic assays ([Basso et al., 2022]). See section Quantification of Bone Marrow NSP Activities for details.\n(§3) For the mice, each animal had the femurs and tibias of both hind limbs harvested. For the rat, the femur and tibia from a single hind limb per animal was harvested. Bones were kept on wet ice until processing for bone marrow collection. In brief, bone cutters were used to cut the epiphysis (knobby ends) off the long bones to expose the bone marrow filled cavity. Each bone cavity was then flushed with 5 mL/bone (mouse) or 10 mL/bone (rat) of ice-cold RPMI media through a […] and collected in a 50-mL conical tube. Cells were spun down at 2,500 × g at 4°C for 5 min and the supernatant was aspirated. After which, bone marrow cells were lysed with 1X red blood cell (RBC) lysis buffer (Abcam, ab204733) to eliminate contaminating RBCs and washed with PBS to remove any residual RBC lysis buffer. The resulting white blood cells (WBC) were subsequently lysed with 1% (v/v) Triton X-100 in PBS. Lysates were added to 96-well plates and stored at −80°C until NSP analyses.\n(§4) Bone marrow lysates prepared as described above were diluted and plated onto 96-well assay plates to quantify NSP activities as described previously ([Basso et al., 2022]). Briefly, peptide substrates for NE (N-Methoxysuccinyl-Ala-Ala-Pro-Val-7-amido-4-methylcoumarin; Sigma; St. Louis, MO; Excitation/Emission at 350/450 nm), PR3 ((7-Methoxycoumarin-4-yl)acetyl-lysyl-(picolinoyl)-Tyr-Asp-Ala-Lys-Gly-Asp-N-3-(2-4-dinitrophenyl)-2-3-diaminopropyonyl-NH2); GenScript; Piscataway, NJ; Excitation/Emission at 340/430 nm), and CatG (N-Succinyl-Ala-Ala-Pro-Phe p nitroanilide; Sigma; Absorbance at 405 nm) were added at a final assay concentration of 100 μM, 40 μM, and 200 μM, respectively, and either fluorescence or absorbance was quantified using a Synergy microplate reader (BioTek; Winooski, VT). The specific NSP activity in each sample was calculated as the total activity minus the activity in the presence of a specific NSP inhibitor (if used), including elastase inhibitor (Abcam) for NE, sivelestat (Abcam) for PR3, and cathepsin G inhibitor I (Cayman Chemical; Ann Arbor, MI) for CatG. NSP concentrations were interpolated based on their activities relative to the standard curves created using active human NE protein (Sigma), active human PR3 protein (Sigma), and active human CatG protein (Sigma), respectively. Due to unavailability of commercial mouse and/or rat NE, PR3, and CatG proteins, the corresponding human proteins were used instead since their catalytic ability is considered to be conserved across species. A portion of each cell lysate sample was retained for protein quantification using a Pierce™ BCA Protein Assay Kit (Thermo Fisher). The NSP activities were normalized for the cell lysate protein concentrations.\n(§5) The Pierce™ BCA Protein Assay Kit was used to measure the total protein of the samples after lysis to allow for subsequent normalization. […]"}, "PR3": {"test_system": "PR3", "test": "PD recovery study, bone marrow PR3 activity, C57BL/6 mice", "settings": "for Percent change from vehicle PR3: bone marrow", "experimental": "A PD recovery study was performed in female C57BL/6 mice dosed BID for 8 consecutive days. Mice were dosed by oral gavage either with vehicle (0 mg/kg) or 5 mg/kg brensocatib (BID; 10 mg/kg/day). After 8 consecutive days of dosing, the animals were maintained without further treatment until prescribed sacrifice (days: 1, 3, 6, 8, and 10 days post final dose). Plasma was collected from animals during the first 24 h of dosing at −0.5 (half-hour prior to dosing), 1, 8, 9, and 24 h post initial dose. Note that the 8- and 24-h plasma samples were prior to the afternoon dose and prior to the second day dose, respectively. Plasma was used for PK analysis via LC-MS/MS. On prescribed days, animals were sacrificed, and the hind limb bones (femurs and tibias) were collected at necropsy for bone marrow analysis of NSP activities by kinetic enzymatic assays.\nas §3, §4\nThe Pierce™ BCA Protein Assay Kit was used to measure the total protein of the samples after lysis to allow for subsequent normalization. The manufacturer’s instructions for use were followed when performing this assay on a portion of the sample lysates which were diluted in PBS, the same diluent as used for preparation of the standard. Plates were read on the Biotek Synergy plate reader with Gen5 software."}, "NE [2]": {"test_system": "NE", "test": "Bone marrow NE activity after repeated dosing, Wistar rats", "settings": "for Reduction of NE activity vs vehicle / Change From Vehicle Control (%) NE: 7 days", "experimental": "as §1, §2, §3, §4, §5"}, "CatG": {"test_system": "CatG", "test": "Bone marrow CatG activity after repeated dosing, BALB/c mice", "settings": "for Reduction of CatG activity vs vehicle / Change From Vehicle Control (%) CatG: 7 days", "experimental": "as §1, §2, §3, §4, §5"}, "[3]": {"settings": "BID highest dose (20 mg/kg/day)"}, "[4]": {"settings": "oral BID 2 mg/kg/day, 16 h post final dose"}, "[5]": {"settings": "oral BID 20 mg/kg/day, 16 h post final dose"}, "[6]": {"settings": "oral QD 3 mg/kg/day, 24 h post final dose"}, "[7]": {"settings": "oral QD 30 mg/kg/day, 24 h post final dose"}, "[8]": {"settings": "after 8 days of 5 mg/kg BID, curve fit with free min and max"}, "[9]": {"settings": "highest dose level 20/30 (BID/QD) mg/kg/day"}},
  "data": [
    {"smiles": "Cn1c(=O)oc2ccc(-c3ccc(C[C@@H](C#N)NC(=O)[C@@H]4CNCCCO4)cc3)cc21", "note": "[brensocatib]", "values": [
      {"measurement": "Reduction of NE activity vs vehicle", "setting": "NE [1]; [3]", "value": 85, "unit": "%"},
      {"measurement": "Reduction of NE activity vs vehicle", "setting": "NE [1]; QD highest dose (30 mg/kg/day)", "value": 71, "unit": "%"},
      {"measurement": "Change From Vehicle Control (%) NE", "setting": "NE [1]; oral BID 0.5 mg/kg/day, 16 h post final dose", "value": "−20% (p = 0.1494)"},
      {"measurement": "Change From Vehicle Control (%) NE", "setting": "NE [1]; [4]", "value": "−71% (p < 0.0001)"},
      {"measurement": "Change From Vehicle Control (%) NE", "setting": "NE [1]; [5]", "value": "−85% (p < 0.0001)"},
      {"measurement": "Change From Vehicle Control (%) NE", "setting": "NE [1]; oral QD 0.75 mg/kg/day, 24 h post final dose", "value": "−9% (p = 0.8092)"},
      {"measurement": "Change From Vehicle Control (%) NE", "setting": "NE [1]; [6]", "value": "−55% (p < 0.0001)"},
      {"measurement": "Change From Vehicle Control (%) NE", "setting": "NE [1]; [7]", "value": "−71% (p < 0.0001)"},
      {"measurement": "Recovery: Time to reach 50% recovery, PR3", "setting": "PR3; [8]", "value": 1.4, "unit": "days"},
      {"measurement": "Recovery: Time to reach 90% recovery, PR3", "setting": "PR3; [8]", "value": 5.2, "unit": "days"},
      {"measurement": "Recovery: Time to reach 95% recovery, PR3", "setting": "PR3; [8]", "value": 6.2, "unit": "days"},
      {"measurement": "Recovery: Time to reach 100% recovery, PR3", "setting": "PR3; [8]", "value": 7.5, "unit": "days"},
      {"measurement": "Percent change from vehicle PR3", "setting": "PR3; 1 day recovery after 8 days of 5 mg/kg BID", "value": "−63% (p < 0.0001)"},
      {"measurement": "Percent change from vehicle PR3", "setting": "PR3; 3 days recovery after 8 days of 5 mg/kg BID", "value": "−28% (p = 0.0024)"},
      {"measurement": "Percent change from vehicle PR3", "setting": "PR3; 6 days recovery after 8 days of 5 mg/kg BID", "value": "−14% (p = 0.3753)"},
      {"measurement": "Percent change from vehicle PR3", "setting": "PR3; 8 days recovery after 8 days of 5 mg/kg BID", "value": "+5% (p = 0.9691)"},
      {"measurement": "Percent change from vehicle PR3", "setting": "PR3; 10 days recovery after 8 days of 5 mg/kg BID", "value": "+16% (p = 0.1549)"},
      {"measurement": "Reduction of NE activity vs vehicle", "setting": "NE [2]; [3]", "value": 19, "unit": "%"},
      {"measurement": "Reduction of NE activity vs vehicle", "setting": "NE [2]; QD highest dose (30 mg/kg/day)", "value": 19, "unit": "%"},
      {"measurement": "Combined BID and QD percent reduction, NE", "setting": "NE [2]; [9]", "value": 19, "unit": "%"},
      {"measurement": "Change From Vehicle Control (%) NE", "setting": "NE [2]; oral BID 0.2 mg/kg/day", "value": "−6% (p = 0.9661)"},
      {"measurement": "Change From Vehicle Control (%) NE", "setting": "NE [2]; oral BID 2 mg/kg/day", "value": "−6% (p = 0.9676)"},
      {"measurement": "Change From Vehicle Control (%) NE", "setting": "NE [2]; oral BID 20 mg/kg/day", "value": "−19% (p = 0.4767)"},
      {"measurement": "Change From Vehicle Control (%) NE", "setting": "NE [2]; oral QD 0.3 mg/kg/day", "value": "+8% (p = 0.9636)"},
      {"measurement": "Change From Vehicle Control (%) NE", "setting": "NE [2]; oral QD 3 mg/kg/day", "value": "+17% (p = 0.7823)"},
      {"measurement": "Change From Vehicle Control (%) NE", "setting": "NE [2]; oral QD 30 mg/kg/day", "value": "−19% (p = 0.7283)"},
      {"measurement": "Reduction of CatG activity vs vehicle", "setting": "CatG; [3]", "value": 92, "unit": "%"},
      {"measurement": "Reduction of CatG activity vs vehicle", "setting": "CatG; QD highest dose (30 mg/kg/day)", "value": 84, "unit": "%"},
      {"measurement": "Combined BID and QD percentage reduction, CatG", "setting": "CatG; [9]", "value": 88, "unit": "%"},
      {"measurement": "Change From Vehicle Control (%) CatG", "setting": "CatG; oral BID 0.2 mg/kg/day, 16 h post final dose", "value": "−1% (p = 0.9993)"},
      {"measurement": "Change From Vehicle Control (%) CatG", "setting": "CatG; [4]", "value": "−36% (p = 0.0165)"},
      {"measurement": "Change From Vehicle Control (%) CatG", "setting": "CatG; [5]", "value": "−92% (p < 0.0001)"},
      {"measurement": "Change From Vehicle Control (%) CatG", "setting": "CatG; oral QD 0.3 mg/kg/day, 24 h post final dose", "value": "−2% (p = 0.9983)"},
      {"measurement": "Change From Vehicle Control (%) CatG", "setting": "CatG; [6]", "value": "−39% (p = 0.0058)"},
      {"measurement": "Change From Vehicle Control (%) CatG", "setting": "CatG; [7]", "value": "−84% (p < 0.0001)"}
    ]}
  ]
}
